Test results taken from US20170260178A1 (SPERO GYRASE, INC., priority 2012, published 2017).

Tests used:
[1] = test system: H. influenzae (ATCC 49247); experiment: Bacterial assay: MIC against H. influenzae; assay type: cell-based; conditions: Haemophilus influenzae, ATCC49247; H. influenzae ATCC 49247; read-out: minimal inhibitory concentration (MIC)
S. pyogenes (ATCC 51339) = experiment: Bacterial assay: MIC against S. pyogenes; assay type: cell-based, Streptococcus pyogenes; conditions: Streptococcus pyogenes, ATCC51339, read-out: minimal inhibitory concentration (MIC)
S. aureus (ATCC 29213) = experiment: Bacterial assay: MIC against S. aureus; assay type: cell-based, Staphylococcus aureus; conditions: Staphylococcus aureus, ATCC29213, read-out: minimal inhibitory concentration (MIC)

Structure (SMILES)	MIC [1] [µg/mL]	MIC (S. pyogenes (ATCC 51339)) [µg/mL]	MIC (S. aureus (ATCC 29213)) [µg/mL]
CCNC(=O)Nc1nc2cc(-c3cnc(C(C)(C)O)nc3)cc(-c3cc(CNC4CC4)ccn3)c2s1 [Compound 53, 1-[7-[4-[(cyclopropylamino)methyl]-2-pyridyl]-5-[2-(1-hydroxy-1-methyl-ethyl)pyrimidin-5-yl]-1,3-benzothiazol-2-yl]-3-ethyl-urea]	≤ 2	≤ 1	≤ 1
CCNC(=O)Nc1nc2cc(-c3cnc(C(C)O)nc3)cc(-c3cc(CN4CCOCC4)ccn3)c2s1 (stereo not drawn) [Compound 55, 1-ethyl-3-[5-[2-(1-hydroxyethyl)pyrimidin-5-yl]-7-[4-(morpholinomethyl)-2-pyridyl]-1,3-benzothiazol-2-yl]urea]	≤ 2	≤ 1	≤ 1
CCNC(=O)Nc1nc2cc(-c3cnc(C(C)(C)O)nc3)cc(-c3ccc(OCCN4CCOCC4)cn3)c2s1 [Compound 56, 1-ethyl-3-[5-[2-(1-hydroxy-1-methyl-ethyl)pyrimidin-5-yl]-7-[5-(2-morpholinoethoxy)-2-pyridyl]-1,3-benzothiazol-2-yl]urea]	≤ 2	≤ 1	≤ 1
CCNC(=O)Nc1nc2cc(-c3cnc(C(O)C4CC4)nc3)cc(-c3ccccn3)c2s1 (stereo not drawn) [Compound 58, 1-[5-[2-[cyclopropyl(hydroxy)methyl]pyrimidin-5-yl]-7-(2-pyridyl)-1,3-benzothiazol-2-yl]-3-ethyl-urea]	≤ 2	≤ 1	≤ 1
CCNC(=O)Nc1nc2cc(-c3cnc(C(O)CC)nc3)cc(-c3ccccn3)c2s1 (stereo not drawn) [Compound 59, 1-ethyl-3-[5-[2-(1-hydroxypropyl)pyrimidin-5-yl]-7-(2-pyridyl)-1,3-benzothiazol-2-yl]urea]	≤ 2	≤ 1	≤ 1
CCCC(O)c1ncc(-c2cc(-c3ccccn3)c3sc(NC(=O)NCC)nc3c2)cn1 (stereo not drawn) [Compound 61, 1-ethyl-3-[5-[2-(1-hydroxybutyl)pyrimidin-5-yl]-7-(2-pyridyl)-1,3-benzothiazol-2-yl]urea]	≤ 2	≤ 1	≤ 1
CCNC(=O)Nc1nc2cc(-c3cnc([C@@H](C)OC(=O)[C@H](N)C(C)C)nc3)cc(-c3ccccn3)c2s1 [Compound 62, [(1R)-1-[5-[2-(ethylcarbamoylamino)-7-(2-pyridyl)-1,3-benzothiazol-5-yl]pyrimidin-2-yl]ethyl] (2R)-2-amino-3-methyl-butanoate]	≤ 2	≤ 1	≤ 1
CCNC(=O)Nc1nc2cc(-c3cnc([C@H](C)OC(=O)[C@H](N)C(C)C)nc3)cc(-c3ccccn3)c2s1 [Compound 63, [(1S)-1-[5-[2-(ethylcarbamoylamino)-7-(2-pyridyl)-1,3-benzothiazol-5-yl]pyrimidin-2-yl]ethyl] (2R)-2-amino-3-methyl-butanoate]	≤ 2	≤ 1	≤ 1
CCNC(=O)Nc1nc2cc(-c3cnc(C(C)O)nc3)cc(-c3cc(CN4CC[C@H](F)C4)ccn3)c2s1 (stereo partly drawn) [Compound 64, 1-ethyl-3-[7-[4-[[(3S)-3-fluoropyrrolidin-1-yl]methyl]-2-pyridyl]-5-[2-(1-hydroxyethyl)pyrimidin-5-yl]-1,3-benzothiazol-2-yl]urea]	≤ 2	≤ 1	≤ 1
CCNC(=O)Nc1nc2cc(-c3cnc(C(C)O)nc3)cc(-c3cc(CN4CCOCC4C)ccn3)c2s1 (stereo not drawn) [Compound 68, 1-ethyl-3-[5-[2-(1-hydroxyethyl)pyrimidin-5-yl]-7-[4-[(3-methylmorpholin-4-yl)methyl]-2-pyridyl]-1,3-benzothiazol-2-yl]urea]	≤ 2	≤ 1	≤ 1
CCNC(=O)Nc1nc2cc(-c3cnc(C(C)O)nc3)cc(-c3cc(CN4C[C@@H](C)O[C@@H](C)C4)ccn3)c2s1 (stereo partly drawn) [Compound 69, 1-[7-[4-[[(2R,6S)-2,6-dimethylmorpholin-4-yl]methyl]-2-pyridyl]-5-[2-(1-hydroxyethyl)pyrimidin-5-yl]-1,3-benzothiazol-2-yl]-3-ethyl-urea]	≤ 2	≤ 1	≤ 1
[2H]C1([2H])OC([2H])([2H])C([2H])([2H])N(Cc2ccnc(-c3cc(-c4cnc(C(C)O)nc4)cc4nc(NC(=O)NCC)sc34)c2)C1([2H])[2H] (stereo not drawn) [Compound 70, 1-ethyl-3-[5-[2-(1-hydroxyethyl)pyrimidin-5-yl]-7-[4-[(2,2,3,3,5,5,6,6-octadeuteriomorpholin-4-yl)methyl]-2-pyridyl]-1,3-benzothiazol-2-yl]urea]	≤ 2	≤ 1	≤ 1
CCNC(=O)Nc1nc2cc(-c3cnc(C(C)O)nc3)cc(-c3cc(CN4CC(C)OCC4C)ccn3)c2s1 (stereo not drawn) [Compound 71, 1-[7-[4-[(2,5-dimethylmorpholin-4-yl)methyl]-2-pyridyl]-5-[2-(1-hydroxyethyl)pyrimidin-5-yl]-1,3-benzothiazol-2-yl]-3-ethyl-urea]	≤ 2	≤ 1	≤ 1
CCNC(=O)Nc1nc2cc(-c3cnc(C(C)O)nc3)cc(-c3cc(CN4CC5(COC5)C4)ccn3)c2s1 (stereo not drawn) [Compound 73, 1-ethyl-3-[5-[2-(1-hydroxyethyl)pyrimidin-5-yl]-7-[4-(6-oxa-2-azaspiro[3.3]heptan-2-ylmethyl)-2-pyridyl]-1,3-benzothiazol-2-yl]urea]	≤ 2	≤ 1	≤ 1
CCNC(=O)Nc1nc2cc(-c3cnc(N4CCC(C)(C(=O)O)CC4)nc3)cc(-c3cc(C(C)(C)O)ccn3)c2s1 [Compound 74, 1-[5-[2-(ethylcarbamoylamino)-7-[4-(1-hydroxy-1-methyl-ethyl)-2-pyridyl]-1,3-benzothiazol-5-yl]pyrimidin-2-yl]-4-methyl-piperidine-4-carboxylic acid]	≤ 2	≤ 1	≤ 1
CCNC(=O)Nc1nc2cc(-c3cnc(C(C)O)nc3)cc(-c3cc(OCCN4CCOCC4)ccn3)c2s1 (stereo not drawn) [Compound 75, 1-ethyl-3-[5-[2-(1-hydroxyethyl)pyrimidin-5-yl]-7-[4-(2-morpholinoethoxy)-2-pyridyl]-1,3-benzothiazol-2-yl]urea]	≤ 2	≤ 1	≤ 1
CCNC(=O)Nc1nc2cc(-c3cnc(C(C)O)nc3)cc(-c3cc(CN4CC(OC)C4)ccn3)c2s1 (stereo not drawn) [Compound 76, 1-ethyl-3-[5-[2-(1-hydroxyethyl)pyrimidin-5-yl]-7-[4-[(3-methoxyazetidin-1-yl)methyl]-2-pyridyl]-1,3-benzothiazol-2-yl]urea]	≤ 2	≤ 1	≤ 1
CCNC(=O)Nc1nc2cc(-c3cnc(C(C)(C)O)nc3)cc(-c3cc(OCCOC)ccn3)c2s1 [Compound 80, 1-ethyl-3-[5-[2-(1-hydroxy-1-methyl-ethyl)pyrimidin-5-yl]-7-[4-(2-methoxyethoxy)-2-pyridyl]-1,3-benzothiazol-2-yl]urea]	≤ 2	≤ 1	≤ 1
CCNC(=O)Nc1nc2cc(-c3cnc(C(O)CN4CCOCC4)nc3)cc(-c3ccccn3)c2s1 (stereo not drawn) [Compound 81, 1-ethyl-3-[5-[2-(1-hydroxy-2-morpholino-ethyl)pyrimidin-5-yl]-7-(2-pyridyl)-1,3-benzothiazol-2-yl]urea]	≤ 2	≤ 1	≤ 1
CNC(=O)Nc1nc2cc(-c3cnc(C(C)(C)O)nc3)cc(-c3ccccn3)c2s1 [Compound 82, 1-[5-[2-(1-hydroxy-1-methyl-ethyl)pyrimidin-5-yl]-7-(2-pyridyl)-1,3-benzothiazol-2-yl]-3-methyl-urea]	≤ 2	≤ 1	≤ 1
CNC(=O)Nc1nc2cc(-c3cnc(C(C)O)nc3)cc(-c3ccccn3)c2s1 (stereo not drawn) [Compound 83, 1-[5-[2-(1-hydroxyethyl)pyrimidin-5-yl]-7-(2-pyridyl)-1,3-benzothiazol-2-yl]-3-methyl-urea]	≤ 2	≤ 1	≤ 1
CCNC(=O)Nc1nc2cc(-c3cnc(C(C)(C)O)nc3)cc(-c3cc(N4CCC(C)(C(=O)O)CC4)ncn3)c2s1 [Compound 87, 1-[6-[2-(ethylcarbamoylamino)-5-[2-(1-hydroxy-1-methyl-ethyl)pyrimidin-5-yl]-1,3-benzothiazol-7-yl]pyrimidin-4-yl]-4-methyl-piperidine-4-carboxylic acid]	≤ 2	≤ 1	≤ 1
CCNC(=O)Nc1nc2cc(-c3cnc(N4CCC(C)(C(=O)O)CC4)nc3)cc(-c3cc(C(C)O)ccn3)c2s1 (stereo not drawn) [Compound 88, 1-[5-[2-(ethylcarbamoylamino)-7-[4-(1-hydroxyethyl)-2-pyridyl]-1,3-benzothiazol-5-yl]pyrimidin-2-yl]-4-methyl-piperidine-4-carboxylic acid]	≤ 2	≤ 1	≤ 1
CCNC(=O)Nc1nc2cc(-c3cnc(C(C)O)nc3)cc(-c3cc(OCCOC)ccn3)c2s1 (stereo not drawn) [Compound 92, 1-ethyl-3-[5-[2-(1-hydroxyethyl)pyrimidin-5-yl]-7-[4-(2-methoxyethoxy)-2-pyridyl]-1,3-benzothiazol-2-yl]urea]	≤ 2	≤ 1	≤ 1
CCNC(=O)Nc1nc2cc(-c3ccc(C(C)O)nc3)cc(-c3ccccn3)c2s1 (stereo not drawn) [Compound 95, 1-ethyl-3-[5-[6-(1-hydroxyethyl)-3-pyridyl]-7-(2-pyridyl)-1,3-benzothiazol-2-yl]urea]	≤ 2	≤ 1	≤ 1
CCNC(=O)Nc1nc2cc(-c3ccc(C(O)C(F)(F)F)nc3)cc(-c3ccccn3)c2s1 (stereo not drawn) [Compound 96, 1-ethyl-3-[7-(2-pyridyl)-5-[6-(2,2,2-trifluoro-1-hydroxy-ethyl)-3-pyridyl]-1,3-benzothiazol-2-yl]urea]	≤ 2	≤ 1	≤ 1
